According to patent publication US20230295200A1 (REGENTS OF THE UNIVERSITY OF MICHIGAN, priority 2022, published 2023):

Each molecule was assayed against T1, STAT6 protein (Homo sapiens, UniProt P42226) (assay: Fluorescence polarization (FP) binding assay, STAT6). Conditions: FP competition, 5 nM fluorescein-labeled tracer, 200 nM protein, PBS pH7.4; read-out: Binding STAT6.
T1 sequence (P42226 1-847): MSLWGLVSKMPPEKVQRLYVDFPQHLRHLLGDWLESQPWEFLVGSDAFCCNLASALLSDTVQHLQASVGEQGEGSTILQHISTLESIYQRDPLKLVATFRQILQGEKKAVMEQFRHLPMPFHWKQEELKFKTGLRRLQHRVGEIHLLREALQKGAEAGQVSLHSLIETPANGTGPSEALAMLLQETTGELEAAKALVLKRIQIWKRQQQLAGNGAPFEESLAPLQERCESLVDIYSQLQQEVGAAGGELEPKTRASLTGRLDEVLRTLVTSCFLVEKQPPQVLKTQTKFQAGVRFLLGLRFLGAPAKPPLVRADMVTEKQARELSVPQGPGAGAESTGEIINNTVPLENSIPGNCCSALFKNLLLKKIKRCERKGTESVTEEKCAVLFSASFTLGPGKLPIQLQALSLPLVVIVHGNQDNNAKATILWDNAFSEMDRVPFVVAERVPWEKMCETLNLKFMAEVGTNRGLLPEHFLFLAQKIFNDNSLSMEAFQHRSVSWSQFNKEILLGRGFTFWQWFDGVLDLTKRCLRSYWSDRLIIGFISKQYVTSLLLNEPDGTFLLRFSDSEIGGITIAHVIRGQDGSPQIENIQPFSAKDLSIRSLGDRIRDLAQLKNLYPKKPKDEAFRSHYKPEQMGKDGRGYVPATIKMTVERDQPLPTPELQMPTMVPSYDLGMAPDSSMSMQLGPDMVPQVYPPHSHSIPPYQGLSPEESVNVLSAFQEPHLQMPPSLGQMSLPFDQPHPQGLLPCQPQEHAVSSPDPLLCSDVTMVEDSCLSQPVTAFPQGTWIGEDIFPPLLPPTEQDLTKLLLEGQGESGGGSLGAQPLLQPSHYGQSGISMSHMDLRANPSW
Method in brief: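 Each well holds 200 nM STAT5 and/or STAT6 with 5 nM fluorescent tracer in PBS pH 7.4 (0.01% BGG, 0.01% Tween-20, 2 mM DTT). Binding reaches equilibrium over 1 h at room temperature after brief shaking, and polarization data are fitted nonlinearly.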

Row | Structure (SMILES) | Ki [nM]
1 | CN1CCC(C[C@H](NC(=O)c2cc3cc(C(F)(F)P(=O)(O)O)ccc3s2)C(=O)N2CCC[C@H]2C(=O)N2CCO[C@H](c3ccccc3)C2)CC1 [Compound 291, (difluoro(2-(((S)-3-(1-methylpiperidin-4-yl)-1-oxo-1-((S)-2-((R)-2-phenylmorpholine-4-carbonyl)pyrrolidin-1-yl)propan-2-yl)carbamoyl)benzo[b]thiophen-5-yl)methyl)phosphonic acid] | 100 to 1000
2 | CCN1CCC(C[C@H](NC(=O)c2cc3cc(C(F)(F)P(=O)(O)O)ccc3s2)C(=O)N2CCC[C@H]2C(=O)N2CCO[C@H](c3ccccc3)C2)CC1 [Compound 292, ((2-(((S)-3-(1-ethylpiperidin-4-yl)-1-oxo-1-((S)-2-((R)-2-phenylmorpholine-4-carbonyl)pyrrolidin-1-yl)propan-2-yl)carbamoyl)benzo[b]thiophen-5-yl)difluoromethyl)phosphonic acid] | 100 to 1000
3 | CC(C)CCN1CCC(C[C@H](NC(=O)c2cc3cc(C(F)(F)P(=O)(O)O)ccc3s2)C(=O)N2CCC[C@H]2C(=O)N2CCO[C@H](c3ccccc3)C2)CC1 [Compound 293, (difluoro(2-(((S)-3-(1-isopentylpiperidin-4-yl)-1-oxo-1-((S)-2-((R)-2-phenylmorpholine-4-carbonyl)pyrrolidin-1-yl)propan-2-yl)carbamoyl)benzo[b]thiophen-5-yl)methyl)phosphonic acid] | 100 to 1000
4 | O=C(N[C@@H](CC1CCN(CC2CCCCC2)CC1)C(=O)N1CCC[C@H]1C(=O)N1CCO[C@H](c2ccccc2)C1)c1cc2cc(C(F)(F)P(=O)(O)O)ccc2s1 [Compound 294, ((2-(((S)-3-(1-(cyclohexylmethyl)piperidin-4-yl)-1-oxo-1-((S)-2-((R)-2-phenylmorpholine-4-carbonyl)pyrrolidin-1-yl)propan-2-yl)carbamoyl)benzo[b]thiophen-5-yl)difluoromethyl)phosphonic acid] | 100 to 1000
5 | CCC(CC)CN1CCC(C[C@H](NC(=O)c2cc3cc(C(F)(F)P(=O)(O)O)ccc3s2)C(=O)N2CCC[C@H]2C(=O)N2CCO[C@H](c3ccccc3)C2)CC1 [Compound 295, ((2-(((S)-3-(1-(2-ethylbutyl)piperidin-4-yl)-1-oxo-1-((S)-2-((R)-2-phenylmorpholine-4-carbonyl)pyrrolidin-1-yl)propan-2-yl)carbamoyl)benzo[b]thiophen-5-yl)difluoromethyl)phosphonic acid] | 100 to 1000
6 | O=C(N[C@@H](CC1CCN(CCc2ccccc2)CC1)C(=O)N1CCC[C@H]1C(=O)N1CCO[C@H](c2ccccc2)C1)c1cc2cc(C(F)(F)P(=O)(O)O)ccc2s1 [Compound 296, (difluoro(2-(((S)-1-oxo-3-(1-phenethylpiperidin-4-yl)-1-((S)-2-((R)-2-phenylmorpholine-4-carbonyl)pyrrolidin-1-yl)propan-2-yl)carbamoyl)benzo[b]thiophen-5-yl)methyl)phosphonic acid] | 100 to 1000
7 | O=C(N[C@@H](CC1CCN(CCCc2ccccc2)CC1)C(=O)N1CCC[C@H]1C(=O)N1CCO[C@H](c2ccccc2)C1)c1cc2cc(C(F)(F)P(=O)(O)O)ccc2s1 [Compound 297, (difluoro(2-(((S)-1-oxo-1-((S)-2-((R)-2-phenylmorpholine-4-carbonyl)pyrrolidin-1-yl)-3-(1-(3-phenylpropyl)piperidin-4-yl)propan-2-yl)carbamoyl)benzo[b]thiophen-5-yl)methyl)phosphonic acid] | 100 to 1000
8 | CC(C)(C)[C@H](NC(=O)c1cc2cc(C(F)(F)P(=O)(O)O)ccc2s1)C(=O)N1C[C@H](Oc2ccccc2)C[C@H]1C(=O)N1CCO[C@H](c2ccccc2)C1 [Compound 299, ((2-(((S)-3,3-dimethyl-1-oxo-1-((2S,4R)-4-phenoxy-2-((R)-2-phenylmorpholine-4-carbonyl)pyrrolidin-1-yl)butan-2-yl)carbamoyl)benzo[b]thiophen-5-yl)difluoromethyl)phosphonic acid] | 100 to 1000
9 | CN1CC[C@H]2CC[C@@H](C(=O)N3CCc4ccccc4C3)N2C(=O)[C@@H](NC(=O)c2cc3cc(C(F)(F)P(=O)(O)O)ccc3[nH]2)C1 [Compound 330, (difluoro(2-(((5S,8S,10aR)-3-methyl-6-oxo-8-(1,2,3,4-tetrahydroisoquinoline-2-carbonyl)decahydropyrrolo[1,2-a][1,5]diazocin-5-yl)carbamoyl)-1H-indol-5-yl)methyl)phosphonic acid] | > 10000

The remaining lines, values ahead:

Row | Ki [nM] | Structure (SMILES)
10 | 100 to 1000 | COc1ccc(C[C@H](NC(=O)c2cc3cc(C(F)(F)P(=O)(O)O)ccc3s2)C(=O)N2CCC[C@H]2C(=O)N2CCO[C@H](c3ccccc3)C2)cc1 [Compound 284, (difluoro(2-(((S)-3-(4-methoxyphenyl)-1-oxo-1-((S)-2-((R)-2-phenylmorpholine-4-carbonyl)pyrrolidin-1-yl)propan-2-yl)carbamoyl)benzo[b]thiophen-5-yl)methyl)phosphonic acid]
11 | 100 to 1000 | O=C(N[C@@H](Cc1ccc2ccccc2c1)C(=O)N1CCC[C@H]1C(=O)N1CCO[C@H](c2ccccc2)C1)c1cc2cc(C(F)(F)P(=O)(O)O)ccc2s1 [Compound 285, (difluoro(2-(((S)-3-(naphthalen-2-yl)-1-oxo-1-((S)-2-((R)-2-phenylmorpholine-4-carbonyl)pyrrolidin-1-yl)propan-2-yl)carbamoyl)benzo[b]thiophen-5-yl)methyl)phosphonic acid]
12 | 100 to 1000 | O=C(N[C@@H](Cc1nc2ccccc2s1)C(=O)N1CCC[C@H]1C(=O)N1CCO[C@H](c2ccccc2)C1)c1cc2cc(C(F)(F)P(=O)(O)O)ccc2s1 [Compound 286, ((2-(((S)-3-(benzo[d]thiazol-2-yl)-1-oxo-1-((S)-2-((R)-2-phenylmorpholine-4-carbonyl)pyrrolidin-1-yl)propan-2-yl)carbamoyl)benzo[b]thiophen-5-yl)difluoromethyl)phosphonic acid]
13 | 100 to 1000 | O=C(N[C@@H](Cc1cccs1)C(=O)N1CCC[C@H]1C(=O)N1CCO[C@H](c2ccccc2)C1)c1cc2cc(C(F)(F)P(=O)(O)O)ccc2s1 [Compound 287, (difluoro(2-(((S)-1-oxo-1-((S)-2-((R)-2-phenylmorpholine-4-carbonyl)pyrrolidin-1-yl)-3-(thiophen-2-yl)propan-2-yl)carbamoyl)benzo[b]thiophen-5-yl)methyl)phosphonic acid]
14 | 100 to 1000 | O=C(N[C@@H](CCc1ccccc1)C(=O)N1CCC[C@H]1C(=O)N1CCO[C@H](c2ccccc2)C1)c1cc2cc(C(F)(F)P(=O)(O)O)ccc2s1 [Compound 288, (difluoro(2-(((S)-1-oxo-4-phenyl-1-((S)-2-((R)-2-phenylmorpholine-4-carbonyl)pyrrolidin-1-yl)butan-2-yl)carbamoyl)benzo[b]thiophen-5-yl)methyl)phosphonic acid]
15 | < 100 | O=C(N[C@@H](CCCc1ccccc1)C(=O)N1CCC[C@H]1C(=O)N1CCO[C@H](c2ccccc2)C1)c1cc2cc(C(F)(F)P(=O)(O)O)ccc2s1 [Compound 289, (difluoro(2-(((S)-1-oxo-5-phenyl-1-((S)-2-((R)-2-phenylmorpholine-4-carbonyl)pyrrolidin-1-yl)pentan-2-yl)carbamoyl)benzo[b]thiophen-5-yl)methyl)phosphonic acid]
16 | 100 to 1000 | O=C(N[C@@H](CC1CCNCC1)C(=O)N1CCC[C@H]1C(=O)N1CCO[C@H](c2ccccc2)C1)c1cc2cc(C(F)(F)P(=O)(O)O)ccc2s1 [Compound 290, (difluoro(2-(((S)-1-oxo-1-((S)-2-((R)-2-phenylmorpholine-4-carbonyl)pyrrolidin-1-yl)-3-(piperidin-4-yl)propan-2-yl)carbamoyl)benzo[b]thiophen-5-yl)methyl)phosphonic acid]
17 | < 100 | CC(C)(C)[C@H](NC(=O)c1cc2cc(C(F)(F)P(=O)(O)O)ccc2s1)C(=O)N1C[C@H](OCc2ccccc2)C[C@H]1C(=O)N1CCO[C@H](c2ccccc2)C1 [Compound 300, ((2-(((S)-1-((2S,4R)-4-(benzyloxy)-2-((R)-2-phenylmorpholine-4-carbonyl)pyrrolidin-1-yl)-3,3-dimethyl-1-oxobutan-2-yl)carbamoyl)benzo[b]thiophen-5-yl)difluoromethyl)phosphonic acid]
18 | < 100 | CC(C)(C)[C@H](NC(=O)c1cc2cc(C(F)(F)P(=O)(O)O)ccc2s1)C(=O)N1C[C@@H](Oc2ccccc2)C[C@H]1C(=O)N1CCO[C@H](c2ccccc2)C1 [Compound 301, ((2-(((S)-3,3-dimethyl-1-oxo-1-((2S,4S)-4-phenoxy-2-((R)-2-phenylmorpholine-4-carbonyl)pyrrolidin-1-yl)butan-2-yl)carbamoyl)benzo[b]thiophen-5-yl)difluoromethyl)phosphonic acid]
